In patent US20060142572A1, “Inhibitors of ERK protein kinase and uses thereof” (priority 2004, published 2006) one finds Ki data, which are given here for 8 compounds.

SMILES strings stand for the structures.

The target of the assay is activated ERK2 (Homo sapiens, UniProt P28482). Description: ERK2 inhibition assay (spectrophotometric coupled-enzyme assay). In kind it is biochemical. Particulars: activated ERK2 10 nM, 65 μM ATP, 200 μM erktide peptide, 30° C., pH 7.5. The method, then: Compounds were assayed for the inhibition of ERK2 by a spectrophotometric coupled-enzyme assay (Fox et al., Protein Sci. 7:2249, 1998). In this assay, a fixed concentration of activated ERK2 (10 nM) was incubated with various concentrations of a compound of the present invention in DMSO (2.5%) for 10 min. at 30° C. in 0.1 M HEPES buffer (pH 7.5), containing 10 mM MgCl2, 2.5 mM phosphoenolpyruvate, 200 μM NADH, 150 μg/ml pyruvate kinase, 50 μg/ml lactate dehydrogenase, and 200 μM erktide peptide. The reaction was initiated by the addition of 65 μM ATP. The rate of decrease of absorbance at 340 nm was monitored.
Chain of activated ERK2 (P28482 whole entry): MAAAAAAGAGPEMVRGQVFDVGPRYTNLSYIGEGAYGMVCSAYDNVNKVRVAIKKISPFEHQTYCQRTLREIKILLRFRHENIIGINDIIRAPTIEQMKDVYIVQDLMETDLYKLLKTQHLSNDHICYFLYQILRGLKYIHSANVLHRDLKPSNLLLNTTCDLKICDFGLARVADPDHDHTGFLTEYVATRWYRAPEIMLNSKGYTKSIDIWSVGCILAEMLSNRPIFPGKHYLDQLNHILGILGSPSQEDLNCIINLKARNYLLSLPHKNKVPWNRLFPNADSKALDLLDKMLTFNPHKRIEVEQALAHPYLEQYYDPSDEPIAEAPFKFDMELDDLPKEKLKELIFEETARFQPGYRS
As usually defined, the Ki is a measure of affinity in units of concentration, obtained from inhibition or displacement. In the case of `CC(C)Nc1ncc(Cl)c(NCC(=O)N[C@H](CO)c2cccc(Cl)c2)n1` [Compound I-1], the inhibitory constant (Ki) is greater than 700 nM.
Turning to `C[C@@H](CO)Nc1ncc(Cl)c(NCC(=O)N[C@H](CO)c2cccc(Cl)c2)n1` [Compound I-2, 2-[5-chloro-2-(2-hydroxy-1-methylethylamino)-pyrimidin-4-ylamino]-N-[1-(3-chlorophenyl)-2-hydroxyethyl]acetamide], the Ki is no more than 700 nM.
For `CC(C)Nc1ncc(Cl)c(NCCC(=O)N[C@H](CO)c2cccc(Cl)c2)n1` [Compound I-3], the Ki was greater than 700 nM.
For the compound `C[C@@H](CO)Nc1ncc(Cl)c(NCCC(=O)N[C@H](CO)c2cccc(Cl)c2)n1` [Compound I-4], the Ki was greater than 700 nM.
As to `C[C@@H](CO)Nc1ncc(Cl)c(NC2(C(=O)N[C@H](CO)c3cccc(Cl)c3)CC2)n1` [Compound I-5, 1-(5-chloro-2-(2-hydroxy-1-methylethylamino)-pyrimidin-4-ylamino)-cyclopropanecarboxylic acid [1-(3-chlorophenyl)-2-hydroxyethyl]-amide], the Ki is greater than 700 nM.
In the case of `CC[C@@H](CO)Nc1ncc(Cl)c(NC2(C(=O)N[C@H](CO)c3cccc(Cl)c3)CC2)n1` [Compound I-6] it was greater than 700 nM.
As for `C[C@@H](CO)Nc1ncc(Cl)c(N(C)CC(=O)N[C@H](CO)c2cccc(Cl)c2)n1` [Compound I-7, 2-{[5-chloro-2-(2-hydroxy-1-methylethylamino)pyrimidin-4-yl]-methylamino}-N-[1-(3-chlorophenyl)-2-hydroxyethyl]acetamide], the Ki is greater than 700 nM.
Turning to `C[C@@H](CO)Nc1nccc(N(C)CC(=O)N[C@H](CO)c2cccc(Cl)c2)n1` [Compound I-8], the Ki was greater than 700 nM.
